According to US20240115654A1, “INTRAVENOUS ADMINISTRATION OF ENGINEERED ANTIMICROBIAL AMPHIPHILIC PEPTIDES” (priority 2021, published 2024):
Converted amounts (≈) assume the structure as drawn. Peptide text beside a SMILES is read from it.

Key:
Format in all cases: cell-based
[1] = test system: Escherichia coli ATCC 35218 (ESBL); conditions: ATCC 35218
Protocol: (§1) Each peptide was formulated in PBS buffer prior to testing. Peptides of SEQ ID NO:5 and SEQ ID NO:8 were brought up in 100% DMSO with 0.002% polysorbate-80 at 1.28 mg/mL (40× the highest final test concentration of 32 mcg/mL). Final test concentration of DMSO was 2.5% in the assay at the first dilution for those two compounds.
(§2) Mueller Hinton II broth (MHB II; BD; Lot Nos. 6258541 and 7143896) was used for MIC testing of aerobic organisms. 0.002% polysorbate 80 (P80) was added to the test medium.
(§3) MIC values were determined using a broth microdilution procedure described by CLSI (1, 3). Automated liquid handlers (Multidrop 384, Labsystems, Helsinki, Finland; Biomek 2000 and Biomek FX, Beckman Coulter, Fullerton CA) were used to conduct serial dilutions and liquid transfers.
(§4) To prepare the drug mother plates, which would provide the serial peptide dilutions for the replicate daughter plates, the wells of columns 2-12 of standard 96-well microdilution plates (Costar 3795) were filled with 150 μl of the designated diluent for each row of peptide. The test articles and comparator compounds (300 μl at 40× the highest concentration to be tested) were dispensed into the appropriate wells in column 1. The Biomek 2000 was then used to make 2-fold serial dilutions in the mother plates from column 1 through column 11. The wells of Column 12 contained no drug and served as the organism growth control wells for the assay.
(§5) The daughter plates were loaded with 185 μL per well of MHB II using the Multidrop 384. The daughter plates were completed on the Biomek FX instrument which transferred 5 uL of peptide solution from each well of a mother plate to the corresponding well of each daughter plate in a single step. A standardized inoculum of each test organism was prepared per CLSI methods. The inoculum for each organism was dispensed into sterile reservoirs divided by length (Beckman Coulter), and the Biomek 2000 was used to inoculate the plates. Daughter plates were placed on the Biomek 2000 work surface in reverse orientation so that inoculation took place from low to high drug concentration. The plates were then inoculated with 10 μL of the inoculum resulting in a final cell density of approximately 5×10^5 CFU/mL, per well.
(§6) Plates were stacked 3-4 high, covered with a lid on the top plate, placed in plastic bags, and incubated at 35° C. for 16 to 20 hrs. Following incubation, the microplates were removed from the incubator and viewed from the bottom using a plate viewer. […] The MIC was read and recorded as the lowest concentration of peptide that inhibited visible growth of the organism.

[2] = test system: Staphylococcus aureus ATCC 43300 (MRSA); conditions: ATCC 43300
Protocol: as §1, §2, §3, §4, §5, §6

[3] = test system: Pseudomonas aeruginosa ATCC 27853 (non-MDR; QC); conditions: ATCC 27853
Protocol: as §1, §2, §3, §4, §5, §6

[4] = test system: Staphylococcus aureus NRS382 (USA100; HA-MRSA); conditions: USA100
Protocol: as §1, §2, §3, §4, §5, §6

[5] = test system: Staphylococcus aureus ATCC 29213 (MSSA; QC); conditions: ATCC 29213
Protocol: as §1, §2, §3, §4, §5, §6

[6] = test system: Pseudomonas aeruginosa ATCC BAA-2109 (MDR); conditions: ATCC BAA-2109
Protocol: as §1, §2, §3, §4, §5, §6

[7] = test system: Acinetobacter baumannii ATCC 19606 (non-MDR); conditions: ATCC 19606
Protocol: as §1, §2, §3, §4, §5, §6

[8] = test system: Escherichia coli ATCC BAA-2471 (NDM-1); conditions: ATCC BAA-2471
Protocol: as §1, §2, §3, §4, §5, §6

[9] = test system: Enterococcus faecalis ATCC 700802 (V583 VRE); conditions: ATCC 700802
Protocol: as §1, §2, §3, §4, §5, §6

[10] = test system: Escherichia coli ATCC 25922 (QC); conditions: ATCC 25922
Protocol: as §1, §2, §3, §4, §5, §6

[11] = test system: Enterococcus faecium ATCC 51559 (VRE); conditions: ATCC 51559
Protocol: as §1, §2, §3, §4, §5, §6

[12] = test system: Streptococcus pneumoniae ATCC 49619 (QC); conditions: ATCC 49619
Protocol: as §1, §2, §3, §4, §5, §6

[13] = test system: Enterococcus faecalis ATCC 29212 (VSE; QC); conditions: ATCC 29212
Protocol: as §1, §2, §3, §4, §5, §6

[14] = test system: Klebsiella pneumoniae ATCC BAA-1705 (KPC); conditions: ATCC BAA-1705
Protocol: as §1, §2, §3, §4, §5, §6

[15] = test system: Streptococcus pyogenes ATCC 49399; conditions: ATCC 49399
Protocol: as §1, §2, §3, §4, §5, §6

Structure (SMILES)	MIC [1]	MIC [2]	MIC [3]	MIC [4]	MIC [5]	MIC [6]	MIC [7]	MIC [8]	MIC [9]	MIC [10]	MIC [11]	MIC [12]	MIC [13]	MIC [14]	MIC [15]
CC[C@H](C)[C@H](N)C(=O)N[C@@H](CCCNC(=N)N)C(=O)N[C@@H](CCCNC(=N)N)C(=O)N[C@@H](CCCNC(=N)N)C(=O)N[C@@H](CCCNC(=N)N)C(=O)N[C@@H](CCCNC(=N)N)C(=O)N[C@@H](CCCNC(=N)N)C(=O)N[C@H](C(=O)N[C@@H](CCCNC(=N)N)C(=O)N[C@@H](CCCNC(=N)N)C(=O)N[C@@H](CCCNC(=N)N)C(=O)N[C@@H](CCCNC(=N)N)C(=O)N[C@@H](CCCNC(=N)N)C(=O)N[C@@H](CCCNC(=N)N)C(=O)O)[C@@H](C)CC [SEQ ID NO: 2] (H-IRRRRRRIRRRRRR-OH; N-terminus and C-terminus assumed)	16 µg/mL (≈ 7.55 µM)	16 µg/mL (≈ 7.55 µM)	>32 µg/mL	8 µg/mL (≈ 3.78 µM)	16 µg/mL (≈ 7.55 µM)	8 µg/mL (≈ 3.78 µM)	32 µg/mL (≈ 15.1 µM)	32 µg/mL (≈ 15.1 µM)	>32 µg/mL	16 µg/mL (≈ 7.55 µM)	16 µg/mL (≈ 7.55 µM)	>32 µg/mL	>32 µg/mL	>32 µg/mL	32 µg/mL (≈ 15.1 µM)
CC[C@H](C)[C@H](N)C(=O)N[C@@H](CCCNC(=N)N)C(=O)N[C@@H](CCCNC(=N)N)C(=O)N[C@@H](CCCNC(=N)N)C(=O)N[C@H](C(=O)N[C@@H](CCCNC(=N)N)C(=O)N[C@@H](CCCNC(=N)N)C(=O)N[C@H](C(=O)N[C@@H](CCCNC(=N)N)C(=O)N[C@@H](CCCNC(=N)N)C(=O)N[C@@H](CCCNC(=N)N)C(=O)N[C@H](C(=O)N[C@@H](CCCNC(=N)N)C(=O)N[C@@H](CCCNC(=N)N)C(=O)N[C@H](C(=O)N[C@@H](CCCNC(=N)N)C(=O)N[C@@H](CCCNC(=N)N)C(=O)N[C@@H](CCCNC(=N)N)C(=O)N[C@H](C(=O)N[C@@H](CCCNC(=N)N)C(=O)N[C@@H](CCCNC(=N)N)C(=O)O)[C@@H](C)CC)[C@@H](C)CC)[C@@H](C)CC)[C@@H](C)CC)[C@@H](C)CC [SEQ ID NO: 3] (H-IRRRIRRIRRRIRRIRRRIRR-OH; N-terminus and C-terminus assumed)	4 µg/mL (≈ 1.32 µM)	8 µg/mL (≈ 2.63 µM)	4 µg/mL (≈ 1.32 µM)	8 µg/mL (≈ 2.63 µM)	8 µg/mL (≈ 2.63 µM)	2 µg/mL (≈ 0.658 µM)	8 µg/mL (≈ 2.63 µM)	4 µg/mL (≈ 1.32 µM)	>32 µg/mL	4 µg/mL (≈ 1.32 µM)	4 µg/mL (≈ 1.32 µM)	32 µg/mL (≈ 10.5 µM)	32 µg/mL (≈ 10.5 µM)	32 µg/mL (≈ 10.5 µM)	16 µg/mL (≈ 5.26 µM)
CC(C)[C@H](N)C(=O)N[C@@H](Cc1c[nH]c2ccccc12)C(=O)N[C@@H](CCCNC(=N)N)C(=O)N[C@@H](Cc1c[nH]c2ccccc12)C(=O)N[C@H](C(=O)N[C@@H](CCCNC(=N)N)C(=O)N[C@@H](CCCNC(=N)N)C(=O)N[C@H](C(=O)N[C@@H](Cc1c[nH]c2ccccc12)C(=O)N[C@@H](CCCNC(=N)N)C(=O)N[C@@H](Cc1c[nH]c2ccccc12)C(=O)N[C@H](C(=O)N[C@@H](CCCNC(=N)N)C(=O)N[C@@H](CCCNC(=N)N)C(=O)N[C@H](C(=O)N[C@@H](Cc1c[nH]c2ccccc12)C(=O)N[C@@H](CCCNC(=N)N)C(=O)N[C@@H](Cc1c[nH]c2ccccc12)C(=O)N[C@H](C(=O)N[C@@H](CCCNC(=N)N)C(=O)N[C@@H](CCCNC(=N)N)C(=O)O)C(C)C)C(C)C)C(C)C)C(C)C)C(C)C [SEQ ID NO: 5] (H-VWRWVRRVWRWVRRVWRWVRR-OH; N-terminus and C-terminus assumed)	16 µg/mL (≈ 5.1 µM)	8 µg/mL (≈ 2.55 µM)	>32 µg/mL	8 µg/mL (≈ 2.55 µM)	16 µg/mL (≈ 5.1 µM)	16 µg/mL (≈ 5.1 µM)	16 µg/mL (≈ 5.1 µM)	32 µg/mL (≈ 10.2 µM)	16 µg/mL (≈ 5.1 µM)	16 µg/mL (≈ 5.1 µM)	8 µg/mL (≈ 2.55 µM)	32 µg/mL (≈ 10.2 µM)	16 µg/mL (≈ 5.1 µM)	>32 µg/mL	32 µg/mL (≈ 10.2 µM)
